Assays:
Assay type in all cases: in vivo
Spodoptera litura = assay: Pesticidal test against Spodoptera litura (cabbage leaf dip); conditions: foliar, 144 h, concentration 1 ppm, 2-stage larvae, examined after 6 days, 25° C., read-out: pesticidal rate
How it was run: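 Cabbage leaf pieces dipped 30 seconds in compound solution at a predetermined concentration and air-dried, then offered to second-stage larvae, five per group in two replicates. Held at 25° C. Living and dead larvae counted after 6 days.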

Plutella xylostella = assay: Pesticidal test against Plutella xylostella (cabbage leaf dip); conditions: foliar, 144 h, concentration 1 ppm, 2-stage larvae, examined after 6 days, 25° C., read-out: pesticidal rate
How it was run: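 Cabbage leaf pieces dipped 30 s in test solution at a predetermined concentration, air-dried, then offered to 2nd-instar larvae, five per group in duplicate. Held at 25° C; living and dead larvae counted after 6 days.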

Adoxophyes honmai = assay: Pesticidal test against Adoxophyes honmai (artificial feed dip); conditions: 144 h, 2-stage larvae, examined after 6 days, 25° C., read-out: pesticidal rate; for pest or weed control at 10 ppm: concentration 10 ppm; for pest or weed control at 1 ppm: concentration 1 ppm
How it was run: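 Thin artificial feed slices dipped 30 s in test solution at a predetermined concentration, air-dried, then offered to 2nd-stage larvae. Kept at 25° C; live and dead larvae counted after 6 days. Five larvae per group, two replicates.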

Choristoneura magnanima = assay: Pesticidal test against Choristoneura magnanima (artificial feed dip); conditions: 144 h, 2-stage larvae, examined after 6 days, 25° C., read-out: pesticidal rate; for pest or weed control at 1 ppm: concentration 1 ppm
How it was run: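 Thin artificial feed slices dipped 30 s in compound solution at a set concentration, air-dried, then offered to 2nd-stage larvae held at 25° C. Living and dead larvae counted after 6 days; five larvae per group, two replicates.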

Helicoverpa armigera = assay: Pesticidal test against Helicoverpa armigera (cabbage leaf disk dip); conditions: foliar, 72 h, concentration 1 ppm, 2-stage larvae, examined after 3 days, 25° C., read-out: pesticidal rate
How it was run: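 Cabbage leaf disks were dipped for 30 s in test solution at a set concentration and air-dried. Second-instar larvae were placed one per hole and held at 25 °C, with live and dead counts taken after 3 days. Five larvae per group were tested in two replicates.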

Laodelphax striatellus = assay: Pesticidal test against Laodelphax striatellus (rice seedling spray); conditions: 144 h, concentration 100 ppm, 3-stage larvae, examined after 6 days, 25° C., read-out: pesticidal rate
How it was run: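 Rice seedlings sprayed with 2.5 ml acetone solution of compound at a predetermined concentration, air-dried, then infested with third-stage Laodelphax striatellus larvae in capped water-containing tubes at 25 °C. Living and dead insects counted after 6 days; ten larvae per group, two replicates.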

Musca domestica = assay: Pesticidal test against Musca domestica (petri dish dry film); conditions: 24 h, concentration 100 ppm, female adults, examined after 1 day, 25° C., read-out: pesticidal rate
How it was run: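 Dry film from 1 ml acetone solution of compound at a predetermined concentration, air-dried in a 9 cm petri dish; female adult flies released and dish capped. Held at 25° C; living and dead counted after 1 day. Five insects per group, two replicates.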

Blattella germanica = assay: Pesticidal test against Blattella germanica (petri dish dry film); conditions: 24 h, concentration 100 ppm, female adults, examined after 1 day, 25° C., read-out: pesticidal rate
How it was run: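 Acetone solution of test compound at a predetermined concentration dried as a film in a 9 cm petri dish; female adult cockroaches released onto it and kept at 25° C. Living and dead counted after 1 day; five insects per group, two replicates.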

O=C(Nc1cccc(C(=O)Nc2c(Br)cc(C(F)(C(F)(F)F)C(F)(F)F)cc2C(F)(F)F)c1F)c1ccc(F)cc1 [6-1577]
≥ 70%: pest or weed control at 1 ppm (Spodoptera litura) | pest or weed control at 1 ppm (Plutella xylostella) | pest or weed control at 10 ppm (Adoxophyes honmai) | pest or weed control at 1 ppm (Choristoneura magnanima) | pest or weed control at 1 ppm (Helicoverpa armigera) | pest or weed control at 100 ppm (Laodelphax striatellus) | pest or weed control at 100 ppm (Musca domestica) | pest or weed control at 100 ppm (Blattella germanica)

CN(C(=O)c1cccc(F)c1)c1cccc(C(=O)Nc2c(I)cc(C(F)(C(F)(F)F)C(F)(F)F)cc2I)c1F [7-1262]
≥ 70%: pest or weed control at 1 ppm (Spodoptera litura) | pest or weed control at 1 ppm (Plutella xylostella) | pest or weed control at 1 ppm (Adoxophyes honmai) | pest or weed control at 1 ppm (Choristoneura magnanima) | pest or weed control at 1 ppm (Helicoverpa armigera) | pest or weed control at 100 ppm (Laodelphax striatellus) | pest or weed control at 100 ppm (Musca domestica) | pest or weed control at 100 ppm (Blattella germanica)

O=C(Nc1cccc(C(=O)Nc2c(I)cc(C(F)(C(F)(F)F)C(F)(F)F)cc2C(F)(F)F)c1)c1ccc(F)cc1 [6-427]
≥ 70%: pest or weed control at 1 ppm (Spodoptera litura) | pest or weed control at 1 ppm (Plutella xylostella) | pest or weed control at 1 ppm (Adoxophyes honmai) | pest or weed control at 1 ppm (Choristoneura magnanima) | pest or weed control at 1 ppm (Helicoverpa armigera) | pest or weed control at 100 ppm (Laodelphax striatellus) | pest or weed control at 100 ppm (Musca domestica) | pest or weed control at 100 ppm (Blattella germanica)

CN(C(=O)c1cccc(F)c1)c1cccc(C(=O)Nc2c(Br)cc(C(F)(C(F)(F)F)C(F)(F)F)cc2C(F)(F)F)c1F [7-1576]
≥ 70%: pest or weed control at 1 ppm (Spodoptera litura) | pest or weed control at 1 ppm (Plutella xylostella) | pest or weed control at 1 ppm (Adoxophyes honmai) | pest or weed control at 1 ppm (Choristoneura magnanima) | pest or weed control at 1 ppm (Helicoverpa armigera) | pest or weed control at 100 ppm (Laodelphax striatellus) | pest or weed control at 100 ppm (Musca domestica) | pest or weed control at 100 ppm (Blattella germanica)

O=C(Nc1cccc(C(=O)Nc2c(I)cc(C(F)(C(F)(F)F)C(F)(F)F)cc2C(F)(F)F)c1F)c1ccccc1 [6-1730]
≥ 70%: pest or weed control at 1 ppm (Spodoptera litura) | pest or weed control at 1 ppm (Plutella xylostella) | pest or weed control at 1 ppm (Adoxophyes honmai) | pest or weed control at 1 ppm (Choristoneura magnanima) | pest or weed control at 1 ppm (Helicoverpa armigera) | pest or weed control at 100 ppm (Laodelphax striatellus) | pest or weed control at 100 ppm (Musca domestica) | pest or weed control at 100 ppm (Blattella germanica)

N#Cc1cccc(C(=O)Nc2cccc(C(=O)Nc3c(I)cc(C(F)(C(F)(F)F)C(F)(F)C(F)(F)F)cc3I)c2F)c1 (centres unmarked) [6-1358]
≥ 70%: pest or weed control at 1 ppm (Spodoptera litura) | pest or weed control at 1 ppm (Plutella xylostella) | pest or weed control at 1 ppm (Adoxophyes honmai) | pest or weed control at 1 ppm (Choristoneura magnanima) | pest or weed control at 1 ppm (Helicoverpa armigera) | pest or weed control at 100 ppm (Laodelphax striatellus) | pest or weed control at 100 ppm (Musca domestica) | pest or weed control at 100 ppm (Blattella germanica)

CN(C(=O)c1ccc(Cl)nc1)c1cccc(C(=O)Nc2c(I)cc(C(F)(C(F)(F)F)C(F)(F)F)cc2I)c1F [7-1303]
≥ 70%: pest or weed control at 1 ppm (Spodoptera litura) | pest or weed control at 1 ppm (Plutella xylostella) | pest or weed control at 1 ppm (Adoxophyes honmai) | pest or weed control at 1 ppm (Choristoneura magnanima) | pest or weed control at 1 ppm (Helicoverpa armigera) | pest or weed control at 100 ppm (Laodelphax striatellus) | pest or weed control at 100 ppm (Musca domestica) | pest or weed control at 100 ppm (Blattella germanica)

CN(C(=O)c1cccc(F)c1)c1cccc(C(=O)Nc2c(Br)cc(C(F)(C(F)(F)F)C(F)(F)F)cc2Br)c1F [7-1106]
≥ 70%: pest or weed control at 1 ppm (Spodoptera litura) | pest or weed control at 1 ppm (Plutella xylostella) | pest or weed control at 1 ppm (Adoxophyes honmai) | pest or weed control at 1 ppm (Choristoneura magnanima) | pest or weed control at 1 ppm (Helicoverpa armigera) | pest or weed control at 100 ppm (Laodelphax striatellus) | pest or weed control at 100 ppm (Musca domestica) | pest or weed control at 100 ppm (Blattella germanica)

CN(C(=O)c1cccc(C#N)c1)c1cccc(C(=O)Nc2c(I)cc(C(F)(C(F)(F)F)C(F)(F)F)cc2C(F)(F)F)c1F [7-1750]
≥ 70%: pest or weed control at 1 ppm (Spodoptera litura) | pest or weed control at 1 ppm (Plutella xylostella) | pest or weed control at 1 ppm (Adoxophyes honmai) | pest or weed control at 1 ppm (Choristoneura magnanima) | pest or weed control at 1 ppm (Helicoverpa armigera) | pest or weed control at 100 ppm (Laodelphax striatellus) | pest or weed control at 100 ppm (Musca domestica) | pest or weed control at 100 ppm (Blattella germanica)

CN(C(=O)c1ccc(Cl)nc1)c1cccc(C(=O)Nc2c(I)cc(C(F)(C(F)(F)F)C(F)(F)F)cc2C(F)(F)F)c1F [7-1773]
≥ 70%: pest or weed control at 1 ppm (Spodoptera litura) | pest or weed control at 1 ppm (Plutella xylostella) | pest or weed control at 10 ppm (Adoxophyes honmai) | pest or weed control at 1 ppm (Choristoneura magnanima) | pest or weed control at 1 ppm (Helicoverpa armigera) | pest or weed control at 100 ppm (Laodelphax striatellus) | pest or weed control at 100 ppm (Musca domestica) | pest or weed control at 100 ppm (Blattella germanica)

O=C(Nc1cccc(C(=O)Nc2c(I)cc(C(F)(C(F)(F)F)C(F)(F)C(F)(F)F)cc2C(F)(F)F)c1F)c1ccc(F)cc1 (centres unmarked) [6-1811]
≥ 70%: pest or weed control at 1 ppm (Spodoptera litura) | pest or weed control at 1 ppm (Plutella xylostella) | pest or weed control at 1 ppm (Adoxophyes honmai) | pest or weed control at 1 ppm (Choristoneura magnanima) | pest or weed control at 1 ppm (Helicoverpa armigera) | pest or weed control at 100 ppm (Laodelphax striatellus) | pest or weed control at 100 ppm (Musca domestica) | pest or weed control at 100 ppm (Blattella germanica)

CN(C(=O)c1cccc(C#N)c1)c1cccc(C(=O)Nc2c(I)cc(C(F)(C(F)(F)F)C(F)(F)F)cc2I)c1F [7-1280]
≥ 70%: pest or weed control at 1 ppm (Spodoptera litura) | pest or weed control at 1 ppm (Plutella xylostella) | pest or weed control at 1 ppm (Adoxophyes honmai) | pest or weed control at 1 ppm (Choristoneura magnanima) | pest or weed control at 1 ppm (Helicoverpa armigera) | pest or weed control at 100 ppm (Laodelphax striatellus) | pest or weed control at 100 ppm (Musca domestica) | pest or weed control at 100 ppm (Blattella germanica)

N#Cc1cccc(C(=O)Nc2cccc(C(=O)Nc3c(I)cc(C(F)(C(F)(F)F)C(F)(F)F)cc3C(F)(F)F)c2F)c1 [6-1750]
≥ 70%: pest or weed control at 1 ppm (Spodoptera litura) | pest or weed control at 1 ppm (Plutella xylostella) | pest or weed control at 1 ppm (Adoxophyes honmai) | pest or weed control at 1 ppm (Choristoneura magnanima) | pest or weed control at 1 ppm (Helicoverpa armigera) | pest or weed control at 100 ppm (Laodelphax striatellus) | pest or weed control at 100 ppm (Musca domestica) | pest or weed control at 100 ppm (Blattella germanica)

O=C(Nc1c(Br)cc(C(F)(C(F)(F)F)C(F)(F)F)cc1C(F)(F)F)c1cccc(NC(=O)c2c(F)cccc2F)c1F [6-1596]
≥ 70%: pest or weed control at 1 ppm (Spodoptera litura) | pest or weed control at 1 ppm (Plutella xylostella) | pest or weed control at 1 ppm (Adoxophyes honmai) | pest or weed control at 1 ppm (Choristoneura magnanima) | pest or weed control at 1 ppm (Helicoverpa armigera) | pest or weed control at 100 ppm (Laodelphax striatellus) | pest or weed control at 100 ppm (Musca domestica) | pest or weed control at 100 ppm (Blattella germanica)

CN(C(=O)c1cccnc1Cl)c1cccc(C(=O)Nc2c(I)cc(C(F)(C(F)(F)F)C(F)(F)C(F)(F)F)cc2C(F)(F)F)c1 (centres unmarked) [7-538]
≥ 70%: pest or weed control at 1 ppm (Spodoptera litura) | pest or weed control at 1 ppm (Plutella xylostella) | pest or weed control at 1 ppm (Adoxophyes honmai) | pest or weed control at 10 ppm (Choristoneura magnanima; concentration 10 ppm) | pest or weed control at 1 ppm (Helicoverpa armigera) | pest or weed control at 100 ppm (Laodelphax striatellus) | pest or weed control at 100 ppm (Musca domestica) | pest or weed control at 100 ppm (Blattella germanica)

O=C(Nc1cccc(C(=O)Nc2c(I)cc(C(F)(C(F)(F)F)C(F)(F)F)cc2C(F)(F)F)c1F)c1cccc(F)c1 [6-1732]
≥ 70%: pest or weed control at 1 ppm (Spodoptera litura) | pest or weed control at 1 ppm (Plutella xylostella) | pest or weed control at 1 ppm (Adoxophyes honmai) | pest or weed control at 1 ppm (Choristoneura magnanima) | pest or weed control at 1 ppm (Helicoverpa armigera) | pest or weed control at 100 ppm (Laodelphax striatellus) | pest or weed control at 100 ppm (Musca domestica) | pest or weed control at 100 ppm (Blattella germanica)

CN(C(=O)c1cccc(C#N)c1)c1cccc(C(=O)Nc2c(I)cc(C(F)(C(F)(F)F)C(F)(F)F)cc2C(F)(F)F)c1 [7-444]
≥ 70%: pest or weed control at 1 ppm (Spodoptera litura) | pest or weed control at 1 ppm (Plutella xylostella) | pest or weed control at 10 ppm (Adoxophyes honmai) | pest or weed control at 1 ppm (Choristoneura magnanima) | pest or weed control at 1 ppm (Helicoverpa armigera) | pest or weed control at 100 ppm (Laodelphax striatellus) | pest or weed control at 100 ppm (Musca domestica) | pest or weed control at 100 ppm (Blattella germanica)

CN(C(=O)c1cccnc1Cl)c1cccc(C(=O)Nc2c(Br)cc(C(F)(C(F)(F)F)C(F)(F)C(F)(F)F)cc2C(F)(F)F)c1 (centres unmarked) [7-382]
≥ 70%: pest or weed control at 1 ppm (Spodoptera litura) | pest or weed control at 1 ppm (Plutella xylostella) | pest or weed control at 1 ppm (Adoxophyes honmai) | pest or weed control at 1 ppm (Choristoneura magnanima) | pest or weed control at 1 ppm (Helicoverpa armigera) | pest or weed control at 100 ppm (Laodelphax striatellus) | pest or weed control at 100 ppm (Musca domestica) | pest or weed control at 100 ppm (Blattella germanica)

CN(C(=O)c1ccc(Cl)nc1)c1cccc(C(=O)Nc2c(I)cc(C(F)(C(F)(F)F)C(F)(F)C(F)(F)F)cc2C(F)(F)F)c1F (centres unmarked) [7-1851]
≥ 70%: pest or weed control at 1 ppm (Spodoptera litura) | pest or weed control at 1 ppm (Plutella xylostella) | pest or weed control at 10 ppm (Adoxophyes honmai) | pest or weed control at 1 ppm (Choristoneura magnanima) | pest or weed control at 1 ppm (Helicoverpa armigera) | pest or weed control at 100 ppm (Laodelphax striatellus) | pest or weed control at 100 ppm (Musca domestica) | pest or weed control at 100 ppm (Blattella germanica)
